In experiment [1] the test system is PBMCs of healthy adults reactive to the anti-HLA-A*24 antibody. The experiment is described as follows: Induction of specific CTLs from PBMCs, method for quantifying cells producing intracellular IFNγ. Type of experiment: cell-based, human. More on the design: key to specific CTL induction, cytokine quantification method: ∘: “open circle” indicates that the use of a candidate peptide enabled specific CTLs to be induced; x: “cross” indicates that specific CTLs was unable to be induced. Conditions: for specific CTL induction confirmed by CD8-positive, IFNγ-positive cells versus HIV peptide: donor ID*24-8, FIG. 3a-d; for peptide-specific cytokine production in PBMCs derived from ten people with HLA-A*24 molecule: summary of Table 2. The procedure, abridged:
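Per culture, 1–3×10^6 HLA-A*24 PBMCs were grown in RPMI1640 with 5% autologous plasma and 10 μg/ml peptide; IL-2 (20–100 U/ml) was added at day 2 and peptide restimulation done at about 2 weeks. Cells were re-exposed to 0.01–0.05 μg/ml peptide with a transport inhibitor for 5–16 h at 37° C. The IFNγ-positive fraction among T cells or MHC-tetramer+ cells was measured by flow cytometry.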

Experiment [2] concerns CTLs with target cells expressing HLA-A*24 molecules. Description: Confirmation of CTLs by ELISPOT assay (IFNγ spots). It is filed as cell-based, human. Conditions: FIG. 4. The method, then: A commercially available ELISPOT assay kit (for example, MABTECH Co.) may be purchased, and the assay can be performed according to the manufacturer's protocol. Alternatively, the assay may also be carried out by the following procedure. 96-well MultiScreen-HA plates (Millipore Co.) were coated with an anti-IFNγ monoclonal antibody (R&D Systems Co.) at 4° C. for overnight. Each well was washed with PBS. Target cells were plated into each well. Any cells expressing HLA-A*24 molecules on their surface can be used as the target cells. For example, T2-A24, a cultured cell which a gene of HLA-A*24 molecule is introduced into a 174CEM.T2 cell, can be used. Alternatively, EBV-infected LCLs expressing HLA-A*24 molecules on their surface can be used as the target cells. These target cells were added into each well with a candidate peptide for adenovirus-specific CTL epitopes or a negative control (HIV) peptide. The mixtures were allowed to stand at room temperature for 30 minutes. Then, an adequate number of CTLs were added, and the mixtures were cultured in a 5% CO2 incubator at 37° C. for 20 hours. CTLs that responded to the candidate epitope peptide secreted IFNγ during this culture period, and the IFNγ bound to the anti-IFNγ monoclonal antibody that was coated on the plates. After culturing was completed, the plates were washed with PBS containing 0.05% Tween-20. Then, an anti-IFNγ polyclonal antibody (Genzyme Co.) and peroxidase-labeled goat anti-rabbit IgG serum were allowed to react in this order at room temperature for 90 minutes each. Furthermore, 3-amino-9-ethylcarbasole (Sigma), a peroxidase substrate, and 0.1M sodium acetate buffer (pH 5.0) containing 0.015% H2O2 was added to each well, and the plates were incubated at room temperature for 40 minutes to visualize the IFNγ spots. The spots were counted under a stereomicroscope.
The spots were counted under a stereomicroscope, and were plotted on a graph.

No end group written: not given here.

Two sequences from US20090142363A1, “CYTOTOXIC T-CELL EPITOPE PEPTIDE AND USE THEREOF” (priority 2005, published 2009) can be followed below.

Regarding TYFNLGNKF [TYF], the “specific CTL induction, cytokine quantification method” value is reported as “x” in experiment [1] (donor ID *24-1); “∘” in experiment [1] (donor ID *24-2); “x” in experiment [1] (donor ID *24-3); “x” in experiment [1] (donor ID *24-5); “∘” in experiment [1] (donor ID *24-8); “x” in experiment [1] (donor ID *24-10). The “specific CTL induction, cytokine quantification method” value in experiment [1] (donor ID *24-11), in experiment [1] (donor ID *24-12), in experiment [1] (donor ID *24-13) and in experiment [1] (donor ID *24-14) was “x” throughout. Also, in experiment [1], the “specific CTL induction confirmed by CD8-positive, IFNγ-positive cells versus HIV peptide” value was “induced specific CTLs”. The “peptide-specific cytokine production in PBMCs derived from ten people with HLA-A*24 molecule” value in experiment [1] is recorded as “induce cytokine production in a peptide-specific manner”. Moreover, the “IFNγ spots in ELISPOT assay compared with the negative control (HIV) peptide” value in experiment [2] is “IFNγ spots were observed”.
On to VYSGSIPYL, for which the “specific CTL induction, cytokine quantification method” value in experiment [1] (donor ID *24-1) was “x”; in experiment [1] (donor ID *24-2), “∘”; in experiment [1] (donor ID *24-3) it was “x”; in experiment [1] (donor ID *24-5), “x”; in experiment [1] (donor ID *24-8), “∘”; in experiment [1] (donor ID *24-10), “x”. The “specific CTL induction, cytokine quantification method” value in experiment [1] (donor ID *24-11), in experiment [1] (donor ID *24-12), in experiment [1] (donor ID *24-13) and in experiment [1] (donor ID *24-14) was “x” each time. Also, the “specific CTL induction confirmed by CD8-positive, IFNγ-positive cells versus HIV peptide” value in experiment [1] is listed as “induced specific CTLs”. For the same sequence, in experiment [1], the “peptide-specific cytokine production in PBMCs derived from ten people with HLA-A*24 molecule” value is “induce cytokine production in a peptide-specific manner”. Besides, in experiment [2], the “IFNγ spots in ELISPOT assay compared with the negative control (HIV) peptide” value was “IFNγ spots were observed”.
